Tested on: Plasmodium falciparum
Assay: GSK_TCMDC: Inhibition of Plasmodium falciparum 3D7 in whole erythrocytes, using parasite LDH activity as an index of growth.
Assay type: functional, organism-based
Details: Plasmodium falciparum, 3D7

Structure (SMILES) | XC50
CCCCCCCN1CC[C@@H](CCCc2ccnc3ccc(OCCCCNC(N)=O)cc23)[C@@H](CC)C1 | 835 nM
CN1CCc2cc(CN3CC4(C)CC3CC(C)(C)C4)c(O)cc2C(c2ccccc2)C1 (stereo not drawn) | 720 nM
CCN(CC)CCNc1ccnc2c3ccccc3n(C)c12 | 238 nM
COc1cc2nc(-c3ccc(Br)cc3)cc(N)c2cc1OC | 173 nM
COc1ccc(CN(C)Cc2ccc(NC(=O)c3cccc4c(=O)c5cccc(C)c5[nH]c34)cc2)cc1OC | 844 nM
COc1cc2c(cc1OC)-c1cc(=Nc3c(C)cc(C)cc3C)n(C)c(=O)n1CC2 | 1110 nM
Cc1cc(C(=O)NCc2ccc(-c3c(C)noc3C)cc2)n(-c2ccc(Cl)cc2)n1 | 531 nM
CN1CCN(c2ccnc3ccc(NC(=O)Nc4ccc(-c5ccncc5)c(C#N)c4)cc23)CC1 | 158 nM
CCOC(=O)C(NC(=O)Cc1ccccc1)C(C)C (stereo not drawn) | 295 nM
CC(C)NC(=O)c1cccc(-c2cccc(OCCN3CCSCC3c3ccccc3)c2)c1 (stereo not drawn) | 1010 nM
O=C(Nc1ccc(-c2nc3ccccc3[nH]2)cc1)c1ccc(N2CCCC2)c([N+](=O)[O-])c1 | 678 nM
COc1cccc(NC(=O)NC2CCN(c3ccnc(Nc4ccc(F)cc4)n3)C2)c1 (stereo not drawn) | 570 nM
CC1CCC(NCc2ccc3c(CNC4CCC(C)CC4)c(O)ccc3c2O)CC1 (stereo not drawn) | 116 nM
CN(C(=O)/C=C/c1cc(C(F)(F)F)ccc1F)C1CCN(CCCCCNC(=O)/C=C/c2ccc(Cl)c(Cl)c2)CC1 | 287 nM
OC(CNCc1cccc(Oc2ccc(Cl)cc2)c1)c1cccc(C(F)(F)F)c1 (stereo not drawn) | 971 nM
CCOc1ccc(NC(=O)c2cn3nc(-c4ccc(OCC)cc4)cc3nc2C2CCNCC2)cc1 | 515 nM
Cc1nc(-c2cccc3c(NC(=O)N4CCc5cc6nccc(N7CCN(C)CC7)c6cc54)cccc23)no1 | 760 nM
COC(=O)C(NC(=O)c1ccc(-c2ccc(-c3nc4ccccc4[nH]3)s2)cc1)c1ccc(O)cc1 (stereo not drawn) | 738 nM
O=C(Nc1ccc(-c2nc3ccccc3[nH]2)cc1)c1cccc([N+](=O)[O-])c1 | 220 nM

Structure (SMILES) | XC50
COc1ccc(C(=O)N2CCN(c3ccc([N+](=O)[O-])c(NC4CC4)c3)CC2)cc1Br | 797 nM
Cc1ccc(CNC(=O)[C@H](CCCN)Nc2nc(Nc3ccccc3)ncc2C)cc1 | 1530 nM
Oc1ccc(CN2CCC(N3CCN(CCc4ccccc4)CC3)C(O)C2)cc1Cl (stereo not drawn) | 865 nM
O=c1cc(-c2ccc3ccccc3c2)[nH]c2ccccc12 | 1160 nM
COc1ccc(-c2ccc(NC(=O)c3cccc(C#N)c3)cc2)cc1CN1CCCC(C(N)=O)C1 (stereo not drawn) | 863 nM
Clc1ccc(OC2CCC(Cn3ccnc3)(c3ccc(Cl)cc3Cl)CC2)c(Cl)c1 (stereo not drawn) | 800 nM
COc1ccc(-c2nc3ccc(C)nc3nc2-c2ccc(OC)cc2)cc1 | 1110 nM
Cc1[nH]c(C)c(Cc2ccc(Oc3ccc(OC(F)(F)F)cc3)cc2)c(=O)c1Br | 686 nM
COc1ccccc1N1CCN(c2cccc3c2nc(-c2cncc(C#N)c2)n3CCNCc2ccccc2)CC1 | 706 nM
O=C(/C=C/c1ccc(Cl)cc1)NCCCCCN1CCC(C(=O)Nc2ccc(Cl)c(Cl)c2)CC1 | 766 nM
CCNC(=O)Nc1cccc(-c2ccc(-c3nc4cccc(C)c4[nH]3)s2)c1 | 766 nM
Cn1cncc1-c1ccc2c(-c3ccsc3)cnc(N)c2c1 | 850 nM
CC(C)Cc1cn(-c2nc(C(=N)N)cs2)c2cc(Cl)ccc12 | 154 nM
COc1ccc(S(=O)(=O)Nc2ccc(C(=O)NCc3ccc(C(F)(F)F)cc3)cc2)cc1N1CCN(CC2CC2)CC1 | 1120 nM
N#Cc1ccc(N2CCN(Cc3cccc(-c4cccc(-c5nc6cc(F)ccc6[nH]5)c4)c3)CC2)nc1 | 959 nM
CCCC(=O)Nc1ccc(OCCCN(Cc2ccccc2OC(F)(F)F)c2ccc(C#N)c(C(F)(F)F)c2)cc1 | 600 nM
Cn1cc(CN2CCC(OC(c3ccccc3)c3ccc(Cl)cc3)CC2)cn1 (stereo not drawn) | 839 nM
CC[C@H]1CN2CC[C@@H]1C[C@@H]2[C@@H](O)c1cc(-c2ccc(F)cc2)nc2ccc(OC)cc12 | 114 nM
C[C@H](NC(=O)c1c(CN2CCC(NC(=O)CC(C)(C)C)CC2)c(-c2cccs2)nc2ccccc12)C1CCCCC1 | 947 nM

— ChEMBL document CHEMBL1157539, “Thousands of chemical starting points for antimalarial lead identification” (Nature, 2010)
